{
  "source": "patent US20110165594A1",
  "about": "“SYSTEMIC MARKERS FOR ASTHMA AND ANALOGOUS DISEASES” (THE CLEVELAND CLINIC FOUNDATION, priority 2005, published 2011)",
  "type_in_all_cases": "cell-based, human",
  "key": {"BET1A-cells": {"system": "BET1A-cells", "experiment": "Tyrosine nitrated proteins in BET1A cells (anti-nitrotyrosine Western, 2D gel)", "procedure": "Western Blot Assay. Airway epithelial cells freshly obtained by bronchoscopic brushing from asthmatics and healthy controls, or BET1A cells, were suspended in buffer (3 mM dithiothreitol, 5 μg/ml aprotinin, 1 μg/ml leupeptin and pepstatin A, 0.1 mM PMSF, 1% NP40 and 40 mM Hepes pH 7.5) and cell lysate prepared by three cycles of freeze/thaw. Total protein was measured by using the Coomassie protein assay (Pierce, Rockford, Ill.). Whole cell lysate protein was denatured and reduced by treatment with buffer containing 0.05 M Tris (pH 6.8), 1% sodium dodecyl sulfate (SDS), 10% glycerol, 0.00125% bromphenol blue and 0.5% β mercaptoethanol for 3 minutes at 95° C. Total protein was separated by electrophoresis on a 10% SDS-polyacrylamide gel, and then electrophoretically transferred onto nitrocellulose (NitroBind EP4HY315F5, Fisher Scientific, Pittsburgh, Pa.) or Polyvinylidene Difluoride membrane (Pierce, Rockford, Ill.) for 1 h at 4° C. Membranes were incubated with blocking buffer [5% non fat dry milk in TBS (20 mM Tris-HCl (pH 7.0) and 137 mM NaCl) with 0.1% Tween] for 1 h at room temperature to block nonspecific binding and then probed with a primary antibody in blocking buffer overnight at 4° C. […]\nTwo dimentional gel electrophoresis. […] Total Protein was measured by using Coomassie protein assay (Pierce, Rockfod, Ill.). […]"}, "GSH": {"system": "GSH", "experiment": "Intracellular GSH in BET1A cells", "procedure": "Antioxidant assays. Bronchial epithelial cells (BET1A) exposed to 5 µM 2-ME for 30 min to 24 h, or serum of asthmatic individuals, were assayed for glutathione (GSH), glutathione peroxidase (GPx), catalase, and SOD activity. SOD activity was determined by the rate of reduction of cytochrome c, with one unit (U) of SOD activity defined as the amount of SOD required to inhibit the rate of cytochrome c reduction by 50% (Nebot C, et al., Anal Biochem 1993, 214:442-451). The final reaction volume was 3 ml and included 50 mM potassium phosphate buffer, […] cytochrome c, 0.05 mM xanthine, and a 0.1 mM EDTA solution. Xanthine oxidase (Sigma, St Louis, Mo.) was added at a concentration sufficient to induce a 0.020 per minute change in absorbance at 550 nm. GSH levels were measured as previously described (Comhair S A, et al., Am J Respir Crit Care Med 1999, 159:1824-1829)."}, "caspase-3": {"system": "caspase-3", "experiment": "Caspase-3-like enzyme activity in BET1A cells", "conditions": "time dependent", "procedure": "Cell Culture. BET1A, a human bronchial epithelial cell line, was cultured in serum-free Lechner and LaVeck medium (LHC-8, Biofluids, Inc., Rockville, Md.) with additives 0.33 nM retinoic acid, […] epinephrine and the antibiotic combination, 1% penicillin/streptomycin, on plates pre-coated with coating media containing 29 μg/ml collagen (Vitrogen: Collagen Corp., Palo Alto, Calif.), 10 μg/ml bovine serum albumin (Biofluids, Rockville, Md.), and 10 μg/ml fibronectin (Calbiochem, La Jolla, Calif.) for 5 min. HAEC obtained by bronchial brushing were cultured in serum-free Lechner and LaVeck media (LHC8) on plates pre-coated with coating media (Reddel R R, et al., Cancer Res 1988, 48:1904-1909). To evaluate oxidant stress and antioxidants in apoptotic events, BET-1A cells were stimulated at 70% confluence with SOD inhibitor, 2-Methoxyoestradiol (2-ME) (Sigma, St Louis, Mo.), or pyrogallol, a superoxide generating compound (J. T. Baker Inc, Phillipsburg, N.J.) (Comhair S A, et al., FASEB J 2001, 15:70-78), or hydrogen peroxide (Sigma, St. Louis, Mo.) in a dose and time dependent manner. […]\nCaspase-3-like enzyme activity. Caspase-3-like activity was measured by a […] assay (BD PharMingen, San Diego, Calif.). […] AMC fluorescence is quantified by UV spectrofluorometry with an excitation wavelength of 380 nm and an emission wavelength range of 420-460 nm."}, "SOD": {"system": "SOD", "experiment": "SOD activity (rate of cytochrome c reduction) in BET1A cells", "procedure": "Cell Culture. BET1A, a human bronchial epithelial cell line, was cultured in serum-free Lechner and […] medium (LHC-8, Biofluids, Inc., Rockville, Md.) with additives 0.33 nM retinoic acid, […] epinephrine and the antibiotic combination, 1% penicillin/streptomycin, on plates pre-coated with coating media containing 29 μg/ml collagen (Vitrogen: Collagen Corp., Palo Alto, Calif.), 10 μg/ml bovine serum albumin (Biofluids, Rockville, Md.), and 10 μg/ml fibronectin (Calbiochem, La Jolla, Calif.) for 5 min. HAEC obtained by bronchial brushing were cultured in serum-free Lechner and […] media (LHC8) on plates pre-coated with coating media ([…], et al., Cancer Res 1988, 48:1904-1909). […] T. Baker Inc, […], et al., FASEB J 2001, 15:70-78), or hydrogen peroxide (Sigma, St. Louis, Mo.) in a dose and time dependent manner. 293T cells, a clone of 293 (human embryonic kidney fibroblast cells) that expresses the Simian virus 40 large-T antigen, were maintained in DMEM (Invitrogen) with 10% FCS. Antioxidant assays. Bronchial epithelial cells (BET1A) exposed to 5 µM 2-ME for 30 min to 24 h, or serum of asthmatic individuals, were assayed for glutathione (GSH), glutathione peroxidase (GPx), catalase, and SOD activity. SOD activity was determined by the rate of reduction of cytochrome c, with one unit (U) of SOD activity defined as the amount of SOD required to inhibit the rate of cytochrome c reduction by 50% (Nebot C, et al., Anal Biochem 1993, 214:442-451). The final reaction volume was 3 ml and included 50 mM potassium phosphate buffer, […] cytochrome c, 0.05 mM xanthine, and a 0.1 mM EDTA solution. Xanthine oxidase (Sigma, St Louis, Mo.) was added at a concentration sufficient to induce a 0.020 per minute change in absorbance at 550 nm. GSH levels were measured as previously described (Comhair S A, et al., Am J Respir Crit Care Med 1999, 159:1824-1829)."}, "BAX": {"system": "BAX", "experiment": "BAX levels by Western blot", "conditions": "BET1A cells", "procedure": "(§1) Cell Culture. BET1A, a human bronchial epithelial cell line, was cultured in serum-free Lechner and LaVeck medium (LHC-8, Biofluids, Inc., Rockville, Md.) with additives 0.33 nM retinoic acid, […] epinephrine and the antibiotic combination, 1% penicillin/streptomycin, on plates pre-coated with coating media containing 29 μg/ml collagen (Vitrogen: Collagen Corp., Palo Alto, Calif.), 10 μg/ml bovine serum albumin (Biofluids, Rockville, Md.), and 10 μg/ml fibronectin (Calbiochem, La Jolla, Calif.) for 5 min. HAEC obtained by bronchial brushing were cultured in serum-free Lechner and LaVeck media (LHC8) on plates pre-coated with coating media (Reddel R R, et al., Cancer Res 1988, 48:1904-1909). To evaluate oxidant stress and antioxidants in apoptotic events, BET-1A cells were stimulated at 70% confluence with SOD inhibitor, 2-Methoxyoestradiol (2-ME) (Sigma, St Louis, Mo.), or pyrogallol, a superoxide generating compound (J. T. Baker Inc, Phillipsburg, N.J.) (Comhair S A, et al., FASEB J 2001, 15:70-78), or hydrogen peroxide (Sigma, St. Louis, Mo.) in a dose and time dependent manner. 293T cells, a clone of 293 (human embryonic kidney fibroblast cells) that expresses the Simian virus 40 large-T antigen, were maintained in DMEM (Invitrogen) with 10% FCS.\n(§2) Western Blot Assay. […] Total protein was measured by using the Coomassie protein assay (Pierce, Rockford, Ill.). […]"}, "BET1A cells [1]": {"system": "BET1A cells", "experiment": "Apoptosis detection by Annexin V binding", "procedure": "Cell Culture. BET1A, a human bronchial epithelial cell line, was cultured in serum-free Lechner and […] medium (LHC-8, Biofluids, Inc., Rockville, Md.) with additives 0.33 nM retinoic acid, […] epinephrine and the antibiotic combination, 1% penicillin/streptomycin, on plates pre-coated with coating media containing 29 μg/ml collagen (Vitrogen: Collagen Corp., Palo Alto, Calif.), 10 μg/ml bovine serum albumin (Biofluids, Rockville, Md.), and 10 μg/ml fibronectin (Calbiochem, La Jolla, Calif.) for 5 min. HAEC obtained by bronchial brushing were cultured in serum-free Lechner and […] media (LHC8) on plates pre-coated with coating media ([…], et al., Cancer Res 1988, 48:1904-1909). […] T. Baker Inc, […], et al., FASEB J 2001, 15:70-78), or hydrogen peroxide (Sigma, St. Louis, Mo.) in a dose and time dependent manner. 293T cells, a clone of 293 (human embryonic kidney fibroblast cells) that expresses the Simian virus 40 large-T antigen, were maintained in DMEM (Invitrogen) with 10% FCS. Cell Viability and Apoptosis detection. Cell viability was assessed by bright-field microscopy using a trypan blue dye (0.4%) exclusion method. The mean survival was determined by examining four different low power fields. Annexin V binding was used to detect apoptotic cells as previously described (Trautmann A, et al., J Allergy Clin Immunol 2001, 108:839-846). Briefly, cells were incubated with 1.0 μg/mL annexin V-FITC and 2.5 μg/mL propidium iodide (BD Biosciences, Palo Alto, Calif.). The stained cells were analyzed with a FACScan (Becton Dickinson, San Jose, Calif.), using an argon ion laser at 488 nm and emission recorded at 520 nm with band pass and short pass filters. Gating was done on the forward angle and right angle light scatter only to exclude debris and cell clumps. […] The RFI was calculated using the ratio of the linearized mean fluorescence of the cell populations, as provided by the CellQuest software (Becton Dickinson, San Jose, Calif.). Apoptotic cells are identified as the Annexin positive-PI negative fraction."}, "SOD protein": {"system": "SOD protein", "experiment": "SOD protein in treated BET1A cells", "procedure": "as §1, §2"}, "BET1A cells [2]": {"system": "BET1A cells", "experiment": "Cell viability by trypan blue exclusion", "quoted_text": "BET1A, a human bronchial epithelial cell line, was cultured in serum-free Lechner and LaVeck medium (LHC-8, Biofluids, Inc., Rockville, Md.) with additives 0.33 nM retinoic acid, 2.75 mM epinephrine and the antibiotic combination, 1% penicillin/streptomycin, on plates pre-coated with coating media containing 29 μg/ml collagen (Vitrogen: Collagen Corp., Palo Alto, Calif.), 10 μg/ml bovine serum albumin (Biofluids, Rockville, Md.), and 10 μg/ml fibronectin (Calbiochem, La Jolla, Calif.) for 5 min."}, "MnSOD": {"system": "MnSOD", "experiment": "MnSOD silencing by siRNA in 293T cells, caspase-3 activity", "conditions": "48 h after transfection", "procedure": "Caspase-3-like enzyme activity. Caspase-3-like activity was measured by a […] assay (BD PharMingen, San Diego, Calif.). This assay measures active caspase-3 binding to fluorogenic Ac-DEVD-AMC substrate and its cleavage to release the fluorescent AMC. AMC fluorescence is quantified by UV spectrofluorometry with an excitation wavelength of 380 nm and an emission wavelength range of 420-460 nm.\nTransfection of siRNA MnSOD. MnSOD siRNA was synthesized by Ambion (Austin, Tex.). The sense and antisense MnSOD siRNA were 5-GGAACAACAGGCCUUAUUCtt-3 (sense) and 5-GAAUAAGGCCUGUUGUUCCtt-3 (antisense). Silencer™ Negative control #1 siRNA (siRNA control) (Ambion, Austin Tex.) was used as a control. 293T-cells, at 60% confluence in […] plates, were transfected in serum-free medium (DMEM, Invitrogen, Carlsbad Calif.) by using lipofectamine reagent (Invitrogen, Carlsbad Calif.) according to the manufacturer's instructions. For the silencing experiments, cells were transfected with […] of MnSOD siRNA or with 50 nM of Silencer™ Negative Control #1 siRNA. 48 h after transfection, cells were washed, trypsinized and harvested for evaluation of mRNA, protein expression, and caspase-3 activity."}},
  "data": [
    {"compound": "COc1cc2c(cc1O)CC[C@@H]1[C@@H]2CC[C@]2(C)[C@@H](O)CC[C@@H]12", "note": "[2-ME, 2-Methoxyoestradiol]", "values": [
      {"measurement": "tyrosine nitrated proteins", "setting": "BET1A-cells", "value": "increase in tyrosine nitrated proteins"},
      {"measurement": "intracellular GSH", "setting": "GSH", "value": "rapid depletion of intracellular GSH"},
      {"measurement": "caspase-3 activity", "setting": "caspase-3", "value": "significantly increased"},
      {"measurement": "blocked the activity of SOD", "setting": "SOD; 5 μM, 3 h, p=0.004", "value": "up to 86%"},
      {"measurement": "BAX levels", "setting": "BAX", "value": "upregulation of BAX levels"},
      {"measurement": "apoptotic cells (Annexin V staining)", "setting": "BET1A cells [1]", "value": "increase in apoptotic cells as early as 17 h"},
      {"measurement": "SOD protein", "setting": "SOD protein", "value": "did not cause a decrease of SOD protein"},
      {"measurement": "cell viability (trypan blue)", "setting": "BET1A cells [2]", "value": "decrease in cell viability"}
    ]},
    {"compound": "Oc1cccc(O)c1O", "note": "[pyrogallol]", "values": [
      {"measurement": "SOD activity", "setting": "SOD", "value": "loss of SOD activity"},
      {"measurement": "apoptosis", "setting": "BET1A cells [1]", "value": "increased apoptosis"}
    ]},
    {"compound": "OO", "note": "[H202, hydrogen peroxide]", "values": [
      {"measurement": "SOD activity", "setting": "SOD", "value": "loss of SOD activity"},
      {"measurement": "apoptosis", "setting": "BET1A cells [1]", "value": "increased apoptosis"}
    ]},
    {"compound": "MnSOD siRNA: siRNA, sense 5-GGAACAACAGGCCUUAUUCtt-3, antisense 5-GAAUAAGGCCUGUUGUUCCtt-3, synthesized by Ambion (sense GGAACAACAGGCCUUAUUCTT; antisense GAAUAAGGCCUGUUGUUCCTT; 3' tt overhangs, chemistry not given here, further chemistry not given here)", "values": [
      {"measurement": "caspase-3 activation", "setting": "MnSOD", "value": "caspase-3 activation"}
    ]}
  ]
}
